Reference: patent US20090118479A1, “Azo compound, ink composition, recording method and colored article” (priority 2005, published 2009)

Assay: solubility of the azo compound (to water)
Assay type: physicochemical
Source text: The azo compound of the present invention can be used directly or in formulation with an appropriate carrier or the like, as a colorant for various kinds of articles. […] Said water-based composition is useful as a colorant for various kinds of articles. For example, said water-based composition can dye a material composed of cellulose. In addition, it can dye other materials having carbonamide bonds and widely used for dyeing of leather, textile and paper. Meanwhile, a typical use of the compound of the present invention includes an ink composition prepared by dissolving it in a liquid medium.

Compound	solubility [mg/mL]
Nc1c(N=Nc2ccc3c(O)c(N=Nc4ccc5c(O)c(N=Nc6ccc(N=Nc7ccc(S(=O)(=O)O)cc7)cc6S(=O)(=O)O)c(S(=O)(=O)O)cc5c4S(=O)(=O)O)c(S(=O)(=O)O)cc3c2S(=O)(=O)O)cc(S(=O)(=O)O)c2cc(S(=O)(=O)O)c(N=Nc3ccc(S(=O)(=O)O)cc3[N+](=O)[O-])c(O)c12 [compound No. 2]	≥ 100
Cc1cc(N=Nc2c(S(=O)(=O)O)cc3c(S(=O)(=O)O)c(N=Nc4c(S(=O)(=O)O)cc5c(S(=O)(=O)O)c(N=Nc6cc(S(=O)(=O)O)c7cc(S(=O)(=O)O)c(N=Nc8ccc([N+](=O)[O-])cc8S(=O)(=O)O)c(O)c7c6N)ccc5c4O)ccc3c2O)c(OCCCS(=O)(=O)O)cc1N=Nc1cc(S(=O)(=O)O)cc2cc(S(=O)(=O)O)cc(O)c12 [compound No. 13]	≥ 100
